Our source for the IC50 values is patent US9452986B2, “6-heteroaryloxy- or 6-aryloxy-quinoline-2-carboxamides and method of use” (AbbVie Inc., priority 2014, dated 2016).

recombinant human Nav1.7, sequence (Q15858 whole entry): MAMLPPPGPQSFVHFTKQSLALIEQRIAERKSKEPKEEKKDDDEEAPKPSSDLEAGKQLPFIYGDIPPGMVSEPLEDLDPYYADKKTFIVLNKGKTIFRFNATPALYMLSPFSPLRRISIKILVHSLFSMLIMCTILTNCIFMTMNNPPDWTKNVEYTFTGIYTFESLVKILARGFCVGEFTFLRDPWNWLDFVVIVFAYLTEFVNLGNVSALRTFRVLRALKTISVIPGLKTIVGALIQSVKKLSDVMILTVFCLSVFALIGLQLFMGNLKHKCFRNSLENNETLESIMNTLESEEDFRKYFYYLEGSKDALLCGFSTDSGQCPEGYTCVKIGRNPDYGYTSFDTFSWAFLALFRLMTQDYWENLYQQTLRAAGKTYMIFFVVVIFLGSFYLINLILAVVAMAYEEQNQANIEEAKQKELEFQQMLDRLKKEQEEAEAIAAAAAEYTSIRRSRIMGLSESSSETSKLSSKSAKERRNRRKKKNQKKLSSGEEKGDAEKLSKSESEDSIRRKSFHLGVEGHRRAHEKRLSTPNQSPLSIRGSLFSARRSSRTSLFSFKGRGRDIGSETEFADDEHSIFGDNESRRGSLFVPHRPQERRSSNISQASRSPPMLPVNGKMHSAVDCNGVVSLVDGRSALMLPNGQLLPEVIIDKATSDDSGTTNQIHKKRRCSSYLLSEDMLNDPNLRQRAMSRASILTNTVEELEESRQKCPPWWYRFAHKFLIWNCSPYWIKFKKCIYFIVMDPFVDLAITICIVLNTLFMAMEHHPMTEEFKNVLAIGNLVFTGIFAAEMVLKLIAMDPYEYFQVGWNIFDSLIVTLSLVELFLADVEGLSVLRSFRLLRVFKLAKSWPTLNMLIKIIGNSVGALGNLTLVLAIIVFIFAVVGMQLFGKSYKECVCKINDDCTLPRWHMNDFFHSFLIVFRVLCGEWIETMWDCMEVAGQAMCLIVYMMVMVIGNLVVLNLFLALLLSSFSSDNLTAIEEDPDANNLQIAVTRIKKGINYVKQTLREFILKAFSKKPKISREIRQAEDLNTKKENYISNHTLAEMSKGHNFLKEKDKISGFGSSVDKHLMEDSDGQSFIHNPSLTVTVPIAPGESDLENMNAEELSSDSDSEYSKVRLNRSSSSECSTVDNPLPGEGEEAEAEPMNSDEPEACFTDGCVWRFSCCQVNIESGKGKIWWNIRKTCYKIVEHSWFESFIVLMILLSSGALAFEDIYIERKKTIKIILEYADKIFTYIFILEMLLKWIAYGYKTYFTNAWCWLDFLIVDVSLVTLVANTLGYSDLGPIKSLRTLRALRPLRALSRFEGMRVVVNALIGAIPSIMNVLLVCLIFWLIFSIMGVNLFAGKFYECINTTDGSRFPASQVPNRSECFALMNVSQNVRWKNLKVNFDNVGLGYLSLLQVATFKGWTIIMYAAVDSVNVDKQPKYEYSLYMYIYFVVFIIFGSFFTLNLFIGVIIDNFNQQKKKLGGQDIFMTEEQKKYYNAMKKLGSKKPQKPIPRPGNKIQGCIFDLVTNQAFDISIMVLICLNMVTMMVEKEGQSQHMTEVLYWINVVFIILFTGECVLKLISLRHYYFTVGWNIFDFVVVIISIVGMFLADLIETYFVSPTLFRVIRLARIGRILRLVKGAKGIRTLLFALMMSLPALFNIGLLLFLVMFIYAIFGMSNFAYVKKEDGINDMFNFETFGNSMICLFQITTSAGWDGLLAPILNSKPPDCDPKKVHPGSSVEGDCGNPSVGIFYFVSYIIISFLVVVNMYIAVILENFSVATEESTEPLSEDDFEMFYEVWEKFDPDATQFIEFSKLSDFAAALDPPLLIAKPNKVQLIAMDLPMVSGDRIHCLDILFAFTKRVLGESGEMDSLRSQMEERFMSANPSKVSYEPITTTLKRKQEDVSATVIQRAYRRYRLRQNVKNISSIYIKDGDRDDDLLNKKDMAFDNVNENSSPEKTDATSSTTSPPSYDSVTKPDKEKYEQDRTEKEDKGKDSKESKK

One experiment addresses recombinant human Nav1.7 (Homo sapiens (Human), UniProt Q15858). In words: FRET-based membrane potential assay, recombinant human sodium channel Nav1.7. Format: cell-based. To be noted: HEK293 cells stably expressing recombinant human Nav1.7; veratridine + scorpion venom depolarization; read-out: FRET-Membrane Potential Nav1.7 IC50. The method in brief:
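Channel activation used veratridine at its EC80, set by a dilution curve each experiment, together with Leiurus scorpion venom, added 3 min after compound. Membrane-potential ratio signals from FLIPR Tetra in HEPES-buffered HBSS were fitted to a four-parameter Hill equation for percent inhibition and IC50.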
By IC50 is commonly meant the point on the concentration scale where inhibition reaches its midpoint. As for `O=C(NCC(=O)N1CCOCC1)c1ccc2cc(Oc3ccc(C(F)F)cn3)ccc2n1` [Example 458, 6-{[5-(difluoromethyl)pyridin-2-yl]oxy}-N-[2-(morpholin-4-yl)-2-oxoethyl]quinoline-2-carboxamide], the half-maximal inhibitory concentration (IC50) was found to be 1.19 µM. For `O=C(NCCC(=O)N1CCOCC1)c1ccc2cc(Oc3ccc(C(F)F)cn3)ccc2n1` [Example 459, 6-{[5-(difluoromethyl)pyridin-2-yl]oxy}-N-[3-(morpholin-4-yl)-3-oxopropyl]quinoline-2-carboxamide], the IC50 is 8.69 µM.

Turning to `O=C(NCCC(=O)N1CCCC1)c1ccc2cc(Oc3ccc(C(F)F)cn3)ccc2n1` [Example 460, 6-{[5-(difluoromethyl)pyridin-2-yl]oxy}-N-[3-oxo-3-(pyrrolidin-1-yl)propyl]quinoline-2-carboxamide], the half-inhibitory concentration (IC50) is 2.4 µM. As to `CCN(CC)C(=O)CNC(=O)c1ccc2cc(Oc3ccc(C(F)F)cn3)ccc2n1` [Example 461, N-[2-(diethylamino)-2-oxoethyl]-6-{[5-(difluoromethyl)pyridin-2-yl]oxy}quinoline-2-carboxamide], the concentration for half-maximal inhibition (IC50) is 0.354 µM. On to `O=C(NCCC(=O)N1CCCCC1)c1ccc2cc(Oc3ccc(C(F)F)cn3)ccc2n1` [Example 463, 6-{[5-(difluoromethyl)pyridin-2-yl]oxy}-N-[3-oxo-3-(piperidin-1-yl)propyl]quinoline-2-carboxamide], for which the IC50 came out at 1.12 µM. Still for that read-out and setting: next, `CN1CCN(C(=O)c2ccc3cc(Oc4ccc(C(F)F)cn4)ccc3n2)CC1=O` [Example 464, 4-[(6-{[5-(difluoromethyl)pyridin-2-yl]oxy}quinolin-2-yl)carbonyl]-1-methylpiperazin-2-one]: more than 20 µM; `CN(C)C(=O)[C@@H]1CCCN1C(=O)c1ccc2cc(Oc3ccc(C(F)F)cn3)ccc2n1` [Example 465, 1-[(6-{[5-(difluoromethyl)pyridin-2-yl]oxy}quinolin-2-yl)carbonyl]-N,N-dimethyl-L-prolinamide]: more than 20 µM. For the molecule `CN(CC(=O)NC1CC1)C(=O)c1ccc2cc(Oc3ccc(C(F)F)cn3)ccc2n1` [Example 466, N-[2-(cyclopropylamino)-2-oxoethyl]-6-{[5-(difluoromethyl)pyridin-2-yl]oxy}-N-methylquinoline-2-carboxamide], the half-maximal inhibitory concentration (IC50) is 9.41 µM. For the molecule `CCN(CC)C(=O)CCNC(=O)c1ccc2cc(Oc3ccc(C(F)F)cn3)ccc2n1` [Example 467, N-[3-(diethylamino)-3-oxopropyl]-6-{[5-(difluoromethyl)pyridin-2-yl]oxy}quinoline-2-carboxamide], the concentration for half-maximal inhibition (IC50) came out at 0.521 µM. For the molecule `CC(C)NC(=O)CN(C)C(=O)c1ccc2cc(Oc3ccc(C(F)F)cn3)ccc2n1` [Example 468, 6-{[5-(difluoromethyl)pyridin-2-yl]oxy}-N-[2-(isopropylamino)-2-oxoethyl]-N-methylquinoline-2-carboxamide], the concentration for half-maximal inhibition (IC50) was 13.8 µM.

In the case of `O=C(NCCN1CCNCC1=O)c1ccc2cc(Oc3ccc(C(F)(F)F)cn3)ccc2n1` [Example 469, N-[2-(2-oxopiperazin-1-yl)ethyl]-6-{[5-(trifluoromethyl)pyridin-2-yl]oxy}quinoline-2-carboxamide], the concentration for half-maximal inhibition (IC50) was determined as 1.71 µM.

For `O=C(NCC1CNC1)c1ccc2cc(Oc3ccc(C(F)(F)F)cn3)ccc2n1` [Example 470, N-(azetidin-3-ylmethyl)-6-{[5-(trifluoromethyl)pyridin-2-yl]oxy}quinoline-2-carboxamide], the IC50 was 6.6 µM. `CC(C)(O)CNC(=O)c1ccc2cc(Oc3ccc(C(F)(F)F)nc3)ccc2n1` [Example 471, N-(2-hydroxy-2-methylpropyl)-6-{[6-(trifluoromethyl)pyridin-3-yl]oxy}quinoline-2-carboxamide]: the half-maximal inhibitory concentration (IC50) stood at 2.4 µM. Take `N#CCCCN1CCN(C(=O)c2ccc3cc(Oc4ccc(C(F)(F)F)cn4)ccc3n2)CC1` [Example 472, 4-{4-[(6-{[5-(trifluoromethyl)pyridin-2-yl]oxy}quinolin-2-yl)carbonyl]piperazin-1-yl}butanenitrile]: the 50% inhibitory concentration (IC50) was determined as 7.76 µM.

Regarding `N#CCCN1CCN(C(=O)c2ccc3cc(Oc4ccc(C(F)(F)F)cn4)ccc3n2)CC1` [Example 473, 3-{4-[(6-{[5-(trifluoromethyl)pyridin-2-yl]oxy}quinolin-2-yl)carbonyl]piperazin-1-yl}propanenitrile], the half-maximal inhibitory concentration (IC50) worked out at 16.2 µM. Regarding `N#CC1CCN(C(=O)c2ccc3cc(Oc4ccc(C(F)(F)F)cn4)ccc3n2)CC1` [Example 474, 1-[(6-{[5-(trifluoromethyl)pyridin-2-yl]oxy}quinolin-2-yl)carbonyl]piperidine-4-carbonitrile], the IC50 came out at 9.1 µM. `O=C(c1ccc2cc(Oc3ccc(C(F)(F)F)cn3)ccc2n1)N1CC2(C1)OCCO2` [Example 476, 5,8-dioxa-2-azaspiro[3.4]oct-2-yl(6-{[5-(trifluoromethyl)pyridin-2-yl]oxy}quinolin-2-yl)methanone]: the half-inhibitory concentration (IC50) came out at 3.92 µM. Take `O=C(N[C@@H]1CS(=O)(=O)C[C@H]1O)c1ccc2cc(Oc3ccc(C(F)F)cn3)ccc2n1` [Example 477, 6-{[5-(difluoromethyl)pyridin-2-yl]oxy}-N-[(3S,4S)-4-hydroxy-1,1-dioxidotetrahydrothiophen-3-yl]quinoline-2-carboxamide]: the IC50 is 5.51 µM.

With `O=C(c1ccc2cc(Oc3ccc(C(F)(F)F)cn3)ccc2n1)N1CC2OCOC2C1` (centres unmarked) [Example 478, tetrahydro-5H-[1,3]dioxolo[4,5-c]pyrrol-5-yl(6-{[5-(trifluoromethyl)pyridin-2-yl]oxy}quinolin-2-yl)methanone], the IC50 was 5.94 µM. As to `CS(=O)(=O)C1CN(C(=O)c2ccc3cc(Oc4ccc(C(F)F)cn4)ccc3n2)C1` [Example 479, (6-{[5-(difluoromethyl)pyridin-2-yl]oxy}quinolin-2-yl)[3-(methylsulfonyl)azetidin-1-yl]methanone], the 50% inhibitory concentration (IC50) stood at 3.19 µM. Take `CN(C(=O)c1ccc2cc(Oc3ccc(C(F)(F)F)cn3)ccc2n1)C1COC1` [Example 480, N-methyl-N-(oxetan-3-yl)-6-{[5-(trifluoromethyl)pyridin-2-yl]oxy}quinoline-2-carboxamide]: the concentration for half-maximal inhibition (IC50) amounted to 19.9 µM.

As for `O=C(NC1CC[S+]([O-])CC1)c1ccc2cc(Oc3ccc(C(F)F)cn3)ccc2n1` (centres unmarked) [Example 481, 6-{[5-(difluoromethyl)pyridin-2-yl]oxy}-N-(1-oxidotetrahydro-2H-thiopyran-4-yl)quinoline-2-carboxamide], the IC50 amounted to 2.63 µM.

The experiment is the same for the next values; noted with them: read-out: FRET-Membrane Potential Nav1.7 IC50.
In the case of `CN1CC(NC(=O)c2ccc3cc(Oc4ccc(C(F)F)cn4)ccc3n2)CC1=O` (centres unmarked) [Example 462, 6-{[5-(difluoromethyl)pyridin-2-yl]oxy}-N-(1-methyl-5-oxopyrrolidin-3-yl)quinoline-2-carboxamide], the half-inhibitory concentration (IC50) turned out to be 0.947 µM.

As for `O=C(NC1COC1)c1ccc2cc(Oc3ccc(C(F)F)cn3)ccc2n1` [Example 475, 6-{[5-(difluoromethyl)pyridin-2-yl]oxy}-N-(oxetan-3-yl)quinoline-2-carboxamide], the IC50 was determined as 1.96 µM. As to `O=C(NCC1COC1)c1ccc2cc(Oc3ccc(C(F)(F)F)cn3)ccc2n1` [Example 482, N-(oxetan-3-ylmethyl)-6-{[5-(trifluoromethyl)pyridin-2-yl]oxy}quinoline-2-carboxamide], the IC50 was 0.569 µM.

Take `N#Cc1ccc(Oc2ccc3nc(C(=O)NC4CCNC(=O)C4)ccc3c2)cc1` (centres unmarked) [Example 484, 6-(4-cyanophenoxy)-N-(2-oxopiperidin-4-yl)quinoline-2-carboxamide]: the IC50 was 0.879 µM.
